The numbers were not newly measured in publication PMC12333940, “A prometabolite strategy inhibits cardiometabolic disease in an ApoE^–/– murine model of atherosclerosis” (JCI Insight, 2025), which cites them from elsewhere.

On the set-up of this series: method as in printed. Particulars: oral administration of exogenous butyrate; background statement, ref not given; cited from earlier work.

For `CCCC(=O)O` [butyrate, Butyrate], the “absorption into circulation, plasma concentration” value is 3 to 4 mM.
